# Data taken from publication PMC7504639, “Fluorescence Lifetime and Intensity of Thioflavin T as Reporters of Different Fibrillation Stages: Insights Obtained from Fluorescence Up-Conversion and Particle Size Distribution Measurements” (International Journal of Molecular Sciences, 2020).
# Counter-ions that a name gives are not always drawn.
# Target: T1, Human recombinant insulin (Ins); protofibrils / mature fibrils (Homo sapiens, UniProt P01308)
# T1 construct: mature two-chain insulin (cut from proinsulin), recombinant, PanEco; aggregated to amyloid fibrils at pH 2, 62 °C; not the native monomer
# Experiment: fluorescence-mode nanoparticle tracking (fibril staining)
# Type: binding
# Conditions: mature amyloid fibrils, not native insulin
# T1 sequence (P01308 25-54): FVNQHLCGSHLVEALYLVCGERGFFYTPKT
# T1 sequence (P01308 90-110): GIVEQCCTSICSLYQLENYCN
smiles,measurement,value
"CC[n+]1c(/C=C/c2c(C)cc(N(C)C)cc2C)sc2ccccc21 [2M-DMASEBT, trans2-(′-(dimethylamino)-2,6-dimethylstyryl)-3-ethyl-1,3-benzothiazole tosylate]",fluorescence-mode nanoparticle tracking (fibril staining),Fibrils were stained using the ThT derivative 2M-DMASEBT
